The record followed here is patent US10039747B2, “Tetrahydrocyclopentapyrrole derivatives and a method for preparing the same” (Daewoong Pharmaceutical Co., Ltd., priority 2013, dated 2018).

T1 sequence (P19156 2-1034 limits assumed): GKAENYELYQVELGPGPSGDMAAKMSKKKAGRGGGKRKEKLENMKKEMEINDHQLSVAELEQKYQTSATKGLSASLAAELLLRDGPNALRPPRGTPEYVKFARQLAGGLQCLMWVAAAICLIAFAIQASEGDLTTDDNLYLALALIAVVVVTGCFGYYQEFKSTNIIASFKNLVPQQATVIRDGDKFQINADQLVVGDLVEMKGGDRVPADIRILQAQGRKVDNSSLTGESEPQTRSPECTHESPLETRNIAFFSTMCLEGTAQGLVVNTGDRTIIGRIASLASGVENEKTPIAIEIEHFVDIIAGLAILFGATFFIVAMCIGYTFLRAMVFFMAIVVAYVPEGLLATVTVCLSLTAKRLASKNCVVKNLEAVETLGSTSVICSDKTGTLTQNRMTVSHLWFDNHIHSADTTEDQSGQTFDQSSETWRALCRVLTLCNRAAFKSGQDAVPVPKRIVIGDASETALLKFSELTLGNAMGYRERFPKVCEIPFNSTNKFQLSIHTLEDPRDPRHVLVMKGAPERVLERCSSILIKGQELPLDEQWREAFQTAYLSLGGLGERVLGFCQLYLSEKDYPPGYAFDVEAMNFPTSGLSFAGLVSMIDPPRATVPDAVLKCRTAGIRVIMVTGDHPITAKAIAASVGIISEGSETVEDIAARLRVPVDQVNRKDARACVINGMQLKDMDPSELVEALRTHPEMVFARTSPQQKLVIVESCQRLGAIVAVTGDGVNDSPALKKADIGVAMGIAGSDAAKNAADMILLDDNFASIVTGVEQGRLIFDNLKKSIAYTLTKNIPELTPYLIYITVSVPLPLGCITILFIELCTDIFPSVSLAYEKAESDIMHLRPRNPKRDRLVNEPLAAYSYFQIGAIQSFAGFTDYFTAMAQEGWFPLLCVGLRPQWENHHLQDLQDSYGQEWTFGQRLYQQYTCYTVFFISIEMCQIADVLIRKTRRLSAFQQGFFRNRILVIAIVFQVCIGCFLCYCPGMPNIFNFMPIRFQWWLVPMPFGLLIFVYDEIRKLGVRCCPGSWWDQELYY
T1 sequence (P18434 whole entry partner): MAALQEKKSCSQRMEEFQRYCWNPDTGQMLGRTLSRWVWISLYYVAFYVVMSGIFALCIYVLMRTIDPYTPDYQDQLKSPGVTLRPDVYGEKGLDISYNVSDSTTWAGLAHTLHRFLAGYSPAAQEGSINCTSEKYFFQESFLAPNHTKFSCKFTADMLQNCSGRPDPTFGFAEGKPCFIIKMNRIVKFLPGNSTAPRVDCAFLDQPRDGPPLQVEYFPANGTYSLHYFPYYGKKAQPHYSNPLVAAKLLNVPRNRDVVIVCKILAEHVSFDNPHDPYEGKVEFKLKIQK

The first assay concerns the target T1, H+/K+-ATPase (Sus scrofa, UniProt P19156).
T1 construct: reaction buffer solution (60 mmol/l Tris-HCl buffer solution, pH 7.4) containing hog gastric vesicle; from tissue; host or cells: hog stomach (gastric vesicles, by centrifugation after Rabon et al. 1988)
The assay is described as follows: Inhibition of proton pump (H+/K+-ATPase) activity in hog gastric vesicles. It counts as biochemical. The settings on record: K+ specific H+/K+-ATPase activity, pH 7.4, 37° C. for 40 minutes, malachite green. In outline: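 Hog gastric vesicles in 60 mmol/l Tris-HCl pH 7.4 with compound, started with ATP, 40 min at 37° C. Pi read by malachite green at 570 nm; K+-specific activity taken as difference between +K+ and −K+ activity. IC50 from % inhibition by 4-parameter logistic fit.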
As a reminder, the IC50 is the concentration needed to halve the response being measured. For `CNC1CCc2c1cn(S(=O)(=O)c1cccc(Cl)c1)c2-c1ccccc1F` (stereo not shown) [Example 1], the IC50 was found to be 0.34 µM.
Still for that read-out and setting: the figure for `CNC1CCc2c1cn(S(=O)(=O)c1cccc(F)c1)c2-c1ccc(F)cc1F` (stereo not shown) [Example 113, 1-(2,4-difluorophenyl)-2-((3-fluorophenyl)sulfonyl)-N-methyl-2,4,5,6-tetrahydrocyclopenta[c]pyrrol-4-amine] is 0.31 µM.
The same measure, in the same setting: the value for `CN(C)C1CCCc2c1cn(S(=O)(=O)c1cccc(F)c1)c2-c1ccccc1F` (stereo not shown) [Example 136, 1-(2-fluorophenyl)-2-((3-fluorophenyl)sulfonyl)-N,N-dimethyl-4,5,6,7-tetrahydro-2H-isoindole-4-amine] was 15 µM; that for `Cc1cccc(S(=O)(=O)n2cc3c(c2-c2ccccc2F)CCCC3N(C)C)c1` (stereo not shown) [Example 137, 1-(2-fluorophenyl)-N,N-dimethyl-2-(m-tolylsulfonyl)-4,5,6,7-tetrahydro-2H-isoindole-4-amine] was 6 µM.
Same read-out and setting: the value for `CN(C)C1CCCc2c1cn(S(=O)(=O)c1cccc(Cl)c1)c2-c1ccccc1F` (stereo not shown) [Example 138, 2-((3-chlorophenyl)sulfonyl)-1-(2-fluorophenyl)-N,N-dimethyl-4,5,6,7-tetrahydro-2H-isoindole-4-amine] was 7.1 µM; that for `CN(C)C1CCCc2c1cn(S(=O)(=O)c1cccc(C(F)(F)F)c1)c2-c1ccccc1F` (stereo not shown) [Example 139, 1-(2-fluorophenyl)-N,N-dimethyl-2-((3-(trifluoromethyl)phenyl)sulfonyl)-4,5,6,7-tetrahydro-2H-isoindole-4-amine] was 9.07 µM; that for `COc1cccc(S(=O)(=O)n2cc3c(c2-c2ccccc2F)CCCC3N(C)C)c1` (stereo not shown) [Example 140, 1-(2-fluorophenyl)-2-((3-methoxyphenyl)sulfonyl)-N,N-dimethyl-4,5,6,7-tetrahydro-2H-isoindole-4-amine] was 7 µM.
Molecule `CN(C)C1CCCc2c1cn(S(=O)(=O)c1cccc(OC(F)(F)F)c1)c2-c1ccccc1F` (stereo not shown) [Example 141, 1-(2-fluorophenyl)-N,N-dimethyl-2-((3-(trifluoromethoxy)phenyl)sulfonyl)-4,5,6,7-tetrahydro-2H-isoindole-4-amine] came in with a half-inhibitory concentration (IC50) of 10.6 µM.
Still for that read-out and setting: the value for `CN(C)C1CCCc2c1cn(S(=O)(=O)c1cccc(OC(F)F)c1)c2-c1ccccc1F` (stereo not shown) [Example 142, 2-((3-(difluoromethoxy)phenyl)sulfonyl)-1-(2-fluorophenyl)-N,N-dimethyl-4,5,6,7-tetrahydro-2H-isoindole-4-amine] was 8 µM; that for `CN(C)c1cccc(S(=O)(=O)n2cc3c(c2-c2ccccc2F)CCCC3N(C)C)c1` (stereo not shown) [Example 143, 2-((3-(dimethylamino)phenyl)sulfonyl)-1-(2-fluorophenyl)-N,N-dimethyl-4,5,6,7-tetrahydro-2H-isoindole-4-amine] was 5 µM; that for `CN(C)C1CCCc2c1cn(S(=O)(=O)c1cccnc1)c2-c1ccccc1F` (stereo not shown) [Example 144, 1-(2-fluorophenyl)-N,N-dimethyl-2-(pyridin-3-ylsulfonyl)-4,5,6,7-tetrahydro-2H-isoindole-4-amine] was 8 µM.
For the molecule `CNC1CCCCc2c1cn(S(=O)(=O)c1cccc(Cl)c1)c2-c1ccccc1F` (stereo not shown) [Example 145, 2-((3-chlorophenyl)sulfonyl)-1-(2-fluorophenyl)-N-methyl-2,4,5,6,7,8-hexahydrocyclohepta[c]pyrrol-4-amine], half-maximal inhibition (IC50) required 2.2 µM.
Still for that read-out and setting: the value for `CNC1CCCCc2c1cn(S(=O)(=O)c1cccnc1)c2-c1ccccc1F` (stereo not shown) [Example 146, 1-(2-fluorophenyl)-N-methyl-2-(pyridin-3-ylsulfonyl)-2,4,5,6,7,8-hexahydrocyclohepta[c]pyrrol-4-amine] was 4.5 µM; that for `CCNC1CCCCc2c1cn(S(=O)(=O)c1cccc(Cl)c1)c2-c1ccccc1F` (stereo not shown) [Example 147, 2-((3-chlorophenyl)sulfonyl)-N-ethyl-1-(2-fluorophenyl)-2,4,5,6,7,8-hexahydrocyclohepta[c]pyrrol-4-amine] was 7.04 µM.

The test system of another assay is basal gastric acid secretion in pylorus-ligated rat. The assay is described as follows: Inhibition of basal gastric acid secretion in pylorus-ligated rat (Shay's rat model). Particulars: total acid output, male SD rats, 3 mg/kg into the caudal vein, 5 hours after pylorus ligation. It is filed as in vivo. On the procedure:
3) Effect of Inhibiting Basal Gastric Acid Secretion in Pylorus-Ligated Rat
The measurement of effect of inhibiting basal gastric acid secretion by the compound of the present invention was conducted according to shay's rat model (Shay, H., et al., 1945, gastroenterology, 5, p 43-61). Male Sprague Dawley (SD) rats (body weight 180-220 g) were divided into X groups (n=5), and fasted while feeding only water for 18 hours. Under isoflurane anesthesia, incision of abdominal cavity of rat was made to ligate pylorus, and, immediately after the ligation, to the control groups, only an aqueous solution of 10% ethanol, 20% polyethyleneglycol (PEG) 400 and 10% Cremophor was administered into the caudal vein, and to the other groups, a test compound suspended in an aqueous solution of 10% ethanol, 20% polyethyleneglycol 400, 10% Cremophor was administered into the caudal vein at a dose of 3 mg/kg/2 ml. […] The amount and the pH of the obtained gastric juice were measured, the acidity of gastric juice was measured with 0.1 N-NaOH volume (ueq/ml) required for automatic titration of gastric juice to pH 7.0, and total acid output was calculated by multiplying the acidity of gastric juice and the amount of gastric juice. % Inhibition activity of test compound=(total acid secretion of control group−total acid secretion of the group treated with test compound)/total acid secretion of control group×100
Consider `CNC1CCc2c1cn(S(=O)(=O)c1cccc(Cl)c1)c2-c1ccccc1F` (stereo not shown) [Example 1], for which the “% inhibition activity” value is on record as 92%.
Consider `CNC1CCc2c1cn(S(=O)(=O)c1cccc(F)c1)c2-c1ccc(F)cc1F` (stereo not shown) [Example 113, 1-(2,4-difluorophenyl)-2-((3-fluorophenyl)sulfonyl)-N-methyl-2,4,5,6-tetrahydrocyclopenta[c]pyrrol-4-amine], for which the “% inhibition activity” value is given as 52%.
